# In patent US20260034135A1, “USE OF N6-BENZYLAMINOPURINE AS AN APPETITE SUPPRESSANT” (THE GOVERNING COUNCIL OF THE UNIVERSITY OF TORONTO, priority 2022, published 2026):
# Legend:
# Akt (PKB) = experiment: Akt (Ser473) phosphorylation by Western blot in mHypoE-46 after insulin re-exposure; format: cell-based, mouse
# Protocol: (§1) mHypoE-46 cells were serum starved in 5.5 mM glucose (LG) DMEM for 1 hour prior to treatment with vehicle (0.1% DMSO), 100 µM BAP or H20, […] 5-Aminoimidazole-4-carboxamide ribonucleotide (AICAR) or 0 mM glucose DMEM. Protein was harvested using 1× cell lysis buffer (Cell Signaling Technologies, Inc, CST) containing protease and phosphatase inhibitors. A total of 30 μg protein was separated on a 12% SDS-polyacrylamide gels and transferred onto PVDF membranes. […] Protein density was quantified using ImageJ or the iBright Imaging System.
# In order to determine if insulin signaling and sensitivity may be affected by BAP, we assessed the activity and expression of the key signal transduction cascade activated by insulin, the PI3K/Akt pathway. mHypoE-46 neurons were co-treated with 100 μM insulin or vehicle control and 100 μM BAP and vehicle control for 24 hours. […] The phosphorylation level of Akt (PKB), the downstream kinase in the PI3K/Akt signal transduction pathway was assessed. […]
# P2 receptors = settings: rats, via P2 receptors, modifying intracellular calcium levels and cGMP; cited from earlier work
# ERK1/2 = ERK1/2 (Thr202/Tyr204) phosphorylation by Western blot in mHypoE-46; format: cell-based, mouse; settings: 100 μM BAP, 5 minutes
# Protocol: as §1
# We also assessed the activity of another key signal transduction cascade, the MAPK ERK1/2 pathway. mHypoE-46 neurons were treated with 100 μM BAP and vehicle control for 5 minutes followed by protein isolation and Western blot analysis. The phosphorylation level of ERK1/2, one of the MAPK family members, was assessed.
# [1] = test system: mHypoA-POMC/GFP-2 cell line; experiment: Gene expression by qRT-PCR in mHypoA-POMC/GFP-2 hypothalamic cell line; format: cell-based, mouse; settings: 100 μM BAP, 16 hr
# Protocol: Hypothalamic neurons from embryonic and adult mice were previously immortalized to generate the clonal cell lines mHypoE-46, mHypoE-44, mHypoE-41, mHypoE-38, mHypoA-59, a FAC-sorted POMC/GFP mouse-derived cell line, mHypoA-POMC/GFP-2, and a mixed culture mHypoA-Bmal1-WT/F cell line (6, 13, 14). The mHypoE-46, mHypoE-44, and mHypoA-Bmal1-WT/F lines were cultured in DMEM containing 1000 mg/L glucose supplemented with 5% FBS and 1% pen/strep. The mHypoE-41, mHypoE-38, and mHypoA-59 cell lines were cultured in DMEM containing 4500 mg/L glucose supplemented with 2% FBS and 1% pen/strep. The mHypoA-POMC/GFP-2 line was cultured in DMEM containing 1000 mg/L glucose supplemented with 2% FBS and 1% pen/strep. […] Neuropeptide gene expression levels were determined by qRT-PCR.
# For cell culture experiments, total RNA was isolated using PureLink RNA isolation kit (Thermofisher Scientific, Burlington, ON, Canada) according to the manufacturer's instruction with on column DNase step (PureLink DNAse kit) or DNase I treatment to remove genomic DNA. […] RNA quality and quantity were measured using Nanodrop 2000 and 500-1000 ng of complimentary DNA (cDNA) was synthesized with High Capacity cDNA Reverse Transcription kit (Applied biosystems, Thermofisher Scientific). […] Data was analyzed using […] and normalized to reference gene, either 60S ribosomal protein L7 (Rpl7) or Histone 3a (His).
structure (smiles),measurement,setting,value
"c1ccc(CNc2ncnc3nc[nH]c23)cc1 [BAP, N6-benzylaminopurine]",Akt phosphorylation at Ser473 upon 15 minutes of insulin exposure,"Akt (PKB); 100 μM BAP 24 hours, neurons pre-treated with vehicle alone, re-exposed to 100 nM insulin",significantly increased
same,induction of Akt phosphorylation by BAP under insulin-induced cellular insulin resistance,"Akt (PKB); 100 μM BAP, neurons pre-treated with 100 μM insulin for 24 hours",not observed
same,strength of atrial muscle contractions,P2 receptors,increase the strength of atrial muscle contractions
same,ERK1/2 phosphorylation at Thr202/Tyr204,ERK1/2,significantly decreased
same,Pomc expression,[1],significantly induced
